Tests used:
[1] = target: T1, CTLD(4-7)-Fc (construct of the mannose receptor) (Mus musculus, UniProt Q61830); test: ELISA binding of mannose receptor construct CTLD(4-7)-Fc to coated ligands; settings: ELISA plates coated with ligand; FIG. 3c
T1 construct: gift of Dr Luisa Martinez-Pomares, University of Nottingham
Experimental: Constructs of the mannose receptor, CTLD(4-7)-FC and CR-FNII-CTLD(1-3)-CR-Fc, were kindly donated by Dr Luisa Martinez-Pomares, School of Molecular Medical Sciences, Queen's Medical Centre, University of Nottingham, UK. The binding of the constructs to whole recombinant human FVIII and to B domain-deleted recombinant human FVIII was tested either directly by measuring the binding to ELISA plates coated with ligands (mannan was used as a positive control) or indirectly by inhibition tests. The ELISA plates (Nunc; MAXISORP) were coated overnight with dilution series of the FVIII forms (starting at 50 μg/ml) in 154 mM NaCl. TTBS buffer (Tris-HCl 10 mM, pH 7.5, Ca^2+ 10 mM, NaCl 154 mM and 0.05% Tween-20) was used for all the washings. The non-reactive sites were blocked by TBS buffer (TTBS without Tween-20) containing 3% BSA. The plates were then incubated with 2 or 10 μg/ml of the constructs for 2 h at room temperature in TTBS buffer containing 3% BSA. The binding of the MR constructs was detected using a mouse antibody specific for the Fc part of human IgG conjugated to HRP (clone JDC-10, Southern Biotechnology Associates, Inc. AL, USA). […] The absorbance was measured at 492 nm. For the inhibition tests, the plates were coated with each form of FVIII (5.56 μg/ml). […] The absorbance was measured as described above. […]

autologous CD4+ T cells = test: In vitro proliferation of autologous CD4+ T cells (tritiated thymidine); type: cell-based, human; settings: DCs incubated with mannan (1 mg/ml) before FVIII; FIG. 4a
Experimental: The DCs of Example 1 were incubated with mannan (1 mg/ml) for 30 min at 37° C. FVIII dialyzed against RPMI 1640 medium (Kogenate, Bayer) was added (40 μg/ml, 0.143 μM) for 2 hours. The cells were then washed and incubated with LPS (1 μg/0.5 million cells) in complete medium for 48 hours. The cells were then washed and cultured (RPMI 1640 medium, supplemented with 10% male human AB serum, in 96-well cell culture plates with a round base with 200 μl per well) with autologous CD4+ T cells obtained from the PBMC of the corresponding donor using the MACS cell isolation kit (Miltenyi Biotech, Bergisch Gladbach, Germany). The number of CD4+ T cells was kept constant in each well (100,000 cells/well), while the number of DCs varied (5,000, 10,000 and 15,000 DCs in triplicate), giving a T:DC cell ratio of 20:1, 10:1, 6.6:1.
After culture for 4 days, 0.5 μCi of tritiated thymidine was added to each well. The cells were harvested after 16 hours and the radioactivity incorporated was counted.

[2] = test system: D9E9 (T cell clone specific for FVIII); test: In vitro activation of FVIII-specific T cell clone D9E9 (IFN-gamma production); type: cell-based, human
Experimental: After washing, the DCs of Example 1 were resuspended in DMEM:F12 (1:1) medium containing 10% FCS and 10,000 DCs were introduced into each well of a 96-well cell culture plate with a round base. After incubation with mannan (1 mg/ml) in each well for 30 min, the DCs were cultured with 5,000 D9E9 (T cell clone specific for FVIII) in DMEM:F12 (1:1) medium containing 10% FCS and 20 U/ml of rhIL-2 with various doses of whole FVIII or FVIII-BDD (10, 8, 6, 4, 2 μg/ml) for 20 hours at 37° C. Like the D9E9 cells, the LE2E9 and BO2C11 lines of B cells transformed by EBV were cultured in the presence of 10 μg/ml of whole FVIII or FVIII-BDD. The control conditions were maintained in the absence of FVIII, D9E9 or DCs. As a negative control, hrFIX (Benefix, Baxter) was incubated with the cells at isomolar concentrations of FVIII. The supernatants were harvested at the end of the incubation period and tested for their production of IFNγ using the human IFN-γ Duo Set (DY285, R&D Systems) in accordance with the manufacturer's instructions.

FVIII = FVIII (Homo sapiens, UniProt P00451); test: One-stage clotting test, residual FVIII activity in normal human plasma; type: biochemical; settings: normal human plasma incubated with mannan 2 hours at 37° C.; FIG. 5a
Experimental: Normal human plasma was incubated with an identical volume of mannan ([…]) for 2 hours at 37° C. The residual FVIII activity was measured in a one-stage clotting test using human placental […] as an activator (Dade Behring Marburg GmbH, Marburg, Germany) and FVIII-depleted plasma (Dade Behring Marburg GmbH, Marburg, Germany) as a substrate and a fibrin timer (Sysmex CA500, Dade Behring). The dilutions were performed in Owren-Koller buffer (Diagnostica Stago, Asnieres, France).

binding of FVIII to VWF = binding of FVIII to VWF (Homo sapiens, UniProt P00451); test: ELISA for binding of FVIII to VWF; settings: FVIII preincubated with mannan (0.01 to 4 mg/ml); FIG. 5b
Experimental: ELISA plates (Nunc, Roskilde, Denmark) were coated with VWF (VWF, Willefectin, LFB, Les Ulis, France) at 2 μg/ml per well in PBS (pH 7.4) at 37° C. for 1 hour. The plates were saturated with PBS containing 1% skimmed milk and 0.1% Tween 20 for 1 hour at 37° C. FVIII (0.3 μg/ml) was preincubated by itself or with mannan (0.01 to 4 mg/ml) or with BO2C11 (human monoclonal anti-FVIII IgG) (0.05 to 40 μg/ml) in a blocking buffer for 1 hour at 37° C. and then added to the wells coated with VWF and incubated for 1 hour at 37° C. A mouse monoclonal anti-FVIII IgG (mAb6) (3 μg/ml) was incubated at 37° C. for 1 hour. […] No binding of FVIII was observed on the wells which had not been coated.

Sequence of FVIII (P00451 20-1667 limits assumed): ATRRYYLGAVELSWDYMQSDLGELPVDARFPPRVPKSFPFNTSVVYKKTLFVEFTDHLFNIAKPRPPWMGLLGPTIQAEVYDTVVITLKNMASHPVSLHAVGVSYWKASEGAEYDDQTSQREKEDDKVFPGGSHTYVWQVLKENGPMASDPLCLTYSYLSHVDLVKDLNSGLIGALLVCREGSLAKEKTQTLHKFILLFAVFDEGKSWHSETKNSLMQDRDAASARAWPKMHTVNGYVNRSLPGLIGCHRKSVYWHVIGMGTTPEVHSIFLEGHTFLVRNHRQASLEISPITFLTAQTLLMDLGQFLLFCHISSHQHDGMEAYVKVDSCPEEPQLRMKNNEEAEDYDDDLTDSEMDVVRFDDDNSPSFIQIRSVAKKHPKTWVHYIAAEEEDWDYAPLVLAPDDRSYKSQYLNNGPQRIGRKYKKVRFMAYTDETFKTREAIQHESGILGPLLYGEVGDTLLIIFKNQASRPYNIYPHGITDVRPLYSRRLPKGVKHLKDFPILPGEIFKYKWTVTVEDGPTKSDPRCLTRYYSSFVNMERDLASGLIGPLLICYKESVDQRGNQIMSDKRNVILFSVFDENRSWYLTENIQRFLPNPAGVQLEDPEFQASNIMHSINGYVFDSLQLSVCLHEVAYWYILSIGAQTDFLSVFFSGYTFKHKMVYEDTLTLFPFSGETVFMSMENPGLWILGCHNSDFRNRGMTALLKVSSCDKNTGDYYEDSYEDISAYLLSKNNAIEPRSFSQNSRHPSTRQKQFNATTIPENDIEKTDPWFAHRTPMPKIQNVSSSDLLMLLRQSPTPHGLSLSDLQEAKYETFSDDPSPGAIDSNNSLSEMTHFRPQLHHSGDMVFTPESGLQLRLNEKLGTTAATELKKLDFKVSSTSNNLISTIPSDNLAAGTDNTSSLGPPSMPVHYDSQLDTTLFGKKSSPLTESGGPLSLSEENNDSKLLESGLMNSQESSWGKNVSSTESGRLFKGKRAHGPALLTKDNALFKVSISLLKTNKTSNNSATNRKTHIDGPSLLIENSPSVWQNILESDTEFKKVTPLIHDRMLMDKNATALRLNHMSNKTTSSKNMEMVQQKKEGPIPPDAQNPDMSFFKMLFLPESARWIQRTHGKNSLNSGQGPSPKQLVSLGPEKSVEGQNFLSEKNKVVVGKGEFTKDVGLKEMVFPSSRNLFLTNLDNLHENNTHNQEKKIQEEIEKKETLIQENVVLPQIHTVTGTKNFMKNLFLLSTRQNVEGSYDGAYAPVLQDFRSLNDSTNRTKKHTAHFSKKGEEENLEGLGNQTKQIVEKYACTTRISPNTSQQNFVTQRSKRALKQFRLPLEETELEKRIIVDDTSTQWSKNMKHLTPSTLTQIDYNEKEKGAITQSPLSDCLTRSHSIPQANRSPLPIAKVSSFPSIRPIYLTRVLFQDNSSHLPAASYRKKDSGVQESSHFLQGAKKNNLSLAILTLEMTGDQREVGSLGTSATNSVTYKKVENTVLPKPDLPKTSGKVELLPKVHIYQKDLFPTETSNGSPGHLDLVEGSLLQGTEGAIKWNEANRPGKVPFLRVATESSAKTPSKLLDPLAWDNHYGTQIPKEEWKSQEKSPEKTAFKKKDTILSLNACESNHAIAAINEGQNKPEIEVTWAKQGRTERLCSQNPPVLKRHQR
Sequence of FVIII (P00451 1668-2351 limits assumed): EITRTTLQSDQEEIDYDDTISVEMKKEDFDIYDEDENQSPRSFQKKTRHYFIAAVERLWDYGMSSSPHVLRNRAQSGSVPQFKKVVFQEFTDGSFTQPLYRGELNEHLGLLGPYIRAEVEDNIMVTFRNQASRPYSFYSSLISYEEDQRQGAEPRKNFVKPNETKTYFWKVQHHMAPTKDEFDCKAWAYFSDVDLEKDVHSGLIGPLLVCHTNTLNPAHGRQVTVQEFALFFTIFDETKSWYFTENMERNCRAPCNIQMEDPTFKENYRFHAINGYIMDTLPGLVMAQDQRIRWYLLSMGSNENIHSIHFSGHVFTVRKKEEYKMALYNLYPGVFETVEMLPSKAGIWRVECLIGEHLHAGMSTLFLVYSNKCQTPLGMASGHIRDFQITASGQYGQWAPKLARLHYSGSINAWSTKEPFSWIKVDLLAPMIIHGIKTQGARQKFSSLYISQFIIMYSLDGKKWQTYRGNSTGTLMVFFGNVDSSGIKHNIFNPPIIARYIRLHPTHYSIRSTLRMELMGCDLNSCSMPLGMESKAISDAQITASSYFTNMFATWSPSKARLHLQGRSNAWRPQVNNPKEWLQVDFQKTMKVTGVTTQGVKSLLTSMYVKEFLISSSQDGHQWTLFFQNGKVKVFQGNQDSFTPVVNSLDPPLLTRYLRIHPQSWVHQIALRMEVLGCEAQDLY
Sequence of binding of FVIII to VWF (P00451 20-1667 limits assumed): as the sequence (P00451 20-1667 limits assumed) above
Sequence of binding of FVIII to VWF (P00451 1668-2351 limits assumed): as the sequence (P00451 1668-2351 limits assumed) above
T1 sequence (Q61830 with tags, fused parts or gaps limits assumed): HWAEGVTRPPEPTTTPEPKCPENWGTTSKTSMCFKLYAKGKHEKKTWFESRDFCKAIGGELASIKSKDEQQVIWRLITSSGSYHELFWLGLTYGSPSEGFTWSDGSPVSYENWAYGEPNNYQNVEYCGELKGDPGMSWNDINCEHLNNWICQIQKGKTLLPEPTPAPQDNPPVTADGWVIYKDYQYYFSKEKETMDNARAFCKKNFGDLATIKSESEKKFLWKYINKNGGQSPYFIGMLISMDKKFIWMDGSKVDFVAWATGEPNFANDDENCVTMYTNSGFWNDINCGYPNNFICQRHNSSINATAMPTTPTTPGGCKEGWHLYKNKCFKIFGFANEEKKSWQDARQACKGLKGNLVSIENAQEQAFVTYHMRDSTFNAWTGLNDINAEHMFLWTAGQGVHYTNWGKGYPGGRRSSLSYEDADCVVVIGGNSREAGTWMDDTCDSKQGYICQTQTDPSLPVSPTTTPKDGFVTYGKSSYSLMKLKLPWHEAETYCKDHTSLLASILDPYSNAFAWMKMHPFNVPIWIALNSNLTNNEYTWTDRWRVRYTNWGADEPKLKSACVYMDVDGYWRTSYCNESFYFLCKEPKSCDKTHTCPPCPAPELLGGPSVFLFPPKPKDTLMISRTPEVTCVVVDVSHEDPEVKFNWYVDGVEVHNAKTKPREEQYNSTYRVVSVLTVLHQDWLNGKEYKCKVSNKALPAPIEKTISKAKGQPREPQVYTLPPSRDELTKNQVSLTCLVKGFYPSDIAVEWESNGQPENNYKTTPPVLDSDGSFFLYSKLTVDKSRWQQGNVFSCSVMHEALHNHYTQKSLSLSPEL

## mannan
[1]
  binding to CTLD(4-7)-Fc: specific binding
Autologous CD4+ T cells
  proliferation of T cells: levels comparable to those of negative controls
[2]; DCs preincubated with mannan (1 mg/ml), FIG. 4b (B)
  inhibition of FVIII-induced activation of D9E9 cells: up to 84%
[2]; in presence of mannan, FIG. 4b (C)
  activation of D9E9 cells by autologous B cells pulsed with FVIII, LE2E9: does not prevent activation
FVIII
  effect on proclotting activity of FVIII: does not block
Binding of FVIII to VWF
  effect on interaction of FVIII with VWF: does not interfere

— patent US20090317373A1, “Inhibition of the Anti-FVIII Immune Response” (Institut National De La Sante Et De La Recherche Medicale, priority 2005, published 2009)
